Data set [1] concerns the target low Km cAMP PDE, rat brain. Nature of the data set: cAMP PDE inhibition, low Km enzyme from rat brain. The data set is classed as biochemical. The following applies: cAMP concentration 0.14 μM; for IC50: read-out: 50% inhibitory value (I50). The protocol:
(§1) The inhibitory activity of the compounds of the invention (or of compositions, e.g. culture broths, containing them) may be assayed by the method of Pichard and Thun [Journal of Biological Chemistry, 251, 5726-5737 (1976)], using a crude enzyme solution derived from rat brains as the cAMP PDE. In this method, ^14 C-labelled cAMP is used as the substrate and is reacted at 30° C. for 20 minutes with 2-5 μl of the compound or composition under test, 20 μl of a snake venom and 40 μl of the crude enzyme solution in a 0.2M tris-HCl buffer (pH 8.0). The tris-HCl buffer is a mixture of tris(hydroxymethyl)aminomethane and hydrochloric acid. After completion of the reaction, the reaction mixture is treated with an Amberlite (Trade Mark) IRP-58 resin. From the residual radioactivity of the adenosine in the product, the inhibitory activity of the compound or composition against the cAMP PDE can be calculated as a percentage.
(§2) The inhibitory activity of griseolic acid against cAMP PDE in terms of its 50% inhibitory value (I50) are shown in Table 5 against cAMP PDE from a variety of sources having either a high or a low Michaelis constant (Km). The results are reported as μmoles (μM).

Another data set relates to Hela S-3 strain cells. Nature of the data set: basic tests on cytotoxicity. In kind it is cell-based, mouse. Particulars: even at concentrations of 100 μg/ml.
Data set [2] addresses high Km cAMP PDE, rat brain. Nature of the data set: cAMP PDE inhibition, high Km enzyme from rat brain. In kind it is biochemical. The following applies: cAMP concentration 100 μM, read-out: 50% inhibitory value (I50). The protocol: as §1, §2
In data set [3] the target is high Km cAMP PDE, rat heart. Description: cAMP PDE inhibition, high Km enzyme from rat heart. In kind it is biochemical. Particulars: cAMP concentration 100 μM, read-out: 50% inhibitory value (I50). As for the experimental part: as §1, §2
The subject of data set [4] is low Km cAMP PDE, rat aorta. Description: cAMP PDE inhibition, low Km enzyme from rat aorta. In kind it is biochemical. The following applies: cAMP concentration 0.14 μM, read-out: 50% inhibitory value (I50). The protocol:
as §1, §2

Data set [5] deals with low Km cAMP PDE, rat heart. Nature of the data set: cAMP PDE inhibition, low Km enzyme from rat heart. In kind it is biochemical. The following applies: cAMP concentration 0.14 μM, read-out: 50% inhibitory value (I50). The protocol:
as §1, §2

Data set [6] addresses T1, low Km cAMP PDE, rat platelets (Rattus norvegicus, UniProt Q62865).
T1 construct: from tissue; host or cells: rat platelets
T1 sequence (Q62865 1-1141): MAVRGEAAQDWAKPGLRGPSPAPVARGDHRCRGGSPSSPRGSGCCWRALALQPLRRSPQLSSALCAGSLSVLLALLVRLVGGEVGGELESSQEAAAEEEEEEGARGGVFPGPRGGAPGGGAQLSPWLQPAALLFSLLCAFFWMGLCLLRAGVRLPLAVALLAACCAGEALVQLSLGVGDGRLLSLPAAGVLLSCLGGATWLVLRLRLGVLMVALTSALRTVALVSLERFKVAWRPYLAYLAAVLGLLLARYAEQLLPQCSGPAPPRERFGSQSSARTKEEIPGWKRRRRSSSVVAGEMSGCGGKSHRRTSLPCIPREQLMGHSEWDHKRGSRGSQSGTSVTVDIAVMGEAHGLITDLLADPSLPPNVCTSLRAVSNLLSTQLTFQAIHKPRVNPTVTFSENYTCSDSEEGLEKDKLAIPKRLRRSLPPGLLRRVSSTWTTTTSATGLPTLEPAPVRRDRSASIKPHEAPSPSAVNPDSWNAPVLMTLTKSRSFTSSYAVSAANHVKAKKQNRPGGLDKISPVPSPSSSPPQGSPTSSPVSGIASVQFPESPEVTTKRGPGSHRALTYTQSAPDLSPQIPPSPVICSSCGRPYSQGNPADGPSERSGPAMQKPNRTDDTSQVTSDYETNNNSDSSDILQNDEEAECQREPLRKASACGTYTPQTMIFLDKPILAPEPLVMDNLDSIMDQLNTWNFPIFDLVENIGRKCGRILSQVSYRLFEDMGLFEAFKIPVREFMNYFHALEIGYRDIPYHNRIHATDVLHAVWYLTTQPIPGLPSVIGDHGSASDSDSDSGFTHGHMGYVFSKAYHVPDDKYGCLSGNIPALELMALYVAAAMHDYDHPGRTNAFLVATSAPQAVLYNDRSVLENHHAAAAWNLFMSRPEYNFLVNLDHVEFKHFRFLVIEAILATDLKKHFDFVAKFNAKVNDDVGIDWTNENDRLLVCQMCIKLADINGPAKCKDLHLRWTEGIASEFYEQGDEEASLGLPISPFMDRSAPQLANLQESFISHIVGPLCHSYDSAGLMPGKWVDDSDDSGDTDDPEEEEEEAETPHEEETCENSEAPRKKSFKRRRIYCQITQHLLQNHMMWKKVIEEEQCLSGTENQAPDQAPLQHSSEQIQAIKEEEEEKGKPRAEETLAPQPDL
Description: cAMP PDE inhibition, low Km enzyme from rat platelets. The data set is classed as biochemical. Particulars: cAMP concentration 0.14 μM, read-out: 50% inhibitory value (I50). The protocol: as §1, §2

In data set [7] the target is high Km cAMP PDE, rat kidney. Description: cAMP PDE inhibition, high Km enzyme from rat kidney. In kind it is biochemical. Particulars: cAMP concentration 100 μM, read-out: 50% inhibitory value (I50). The protocol: as §1, §2
In data set [8] the test system is high Km cAMP PDE, rat aorta. Description: cAMP PDE inhibition, high Km enzyme from rat aorta. The data set is classed as biochemical. Particulars: cAMP concentration 100 μM, read-out: 50% inhibitory value (I50). As for the experimental part: as §1, §2
For data set [9], the system named is high Km cAMP PDE, rat platelets. Nature of the data set: cAMP PDE inhibition, high Km enzyme from rat platelets. The data set is classed as biochemical. Particulars: cAMP concentration 100 μM, read-out: 50% inhibitory value (I50). The protocol:
as §1, §2

The target in data set [10] is low Km cAMP PDE, rat kidney. Description: cAMP PDE inhibition, low Km enzyme from rat kidney. The data set is classed as biochemical. Particulars: cAMP concentration 0.14 μM, read-out: 50% inhibitory value (I50). The protocol:
as §1, §2

A short description of data set [11]: water solubility (qualitative). The data set is classed as physicochemical.

As to `COc1ccc(Cc2nccc3cc(OC)c(OC)cc23)cc1OC` [Papaverine, reference compound], the IC50 in data set [1] is 3500 nM.
With `Nc1ncnc2c1ncn2C1OC2=C(C(=O)O)C(C(O)C(=O)O)OC2C1O` (centres unmarked) [griseolic acid], the “inhibition of cell growth” value in the data set with Hela S-3 strain cells is recorded as “no inhibition of cell growth”. Further, in data set [1], the “inhibitory activity relative to papaverine (times stronger)” value is on record as “about 20 times”. Further, the IC50 was determined as 160 nM in data set [1]; 800 nM in data set [2]; 340 nM in [3]; 31 nM in [4]; 36 nM in data set [5]; 41 nM in data set [6]. Also, the IC50 in data set [7] came out at 580 nM; in data set [8] it was 510 nM; in data set [9] it was 8 µM; in [10] it was 120 nM. For the same compound, in data set [11], the water solubility result is reported as “water-soluble”.
